System: MMP-1
Assay: Inhibition of MMP-1 expression caused by UVB radiation in NHF cells
Format: cell-based, human
Conditions: NHF(p6), 40 mJ UVB, 48 hours, 10 uM positive control; Control UV = 230
Procedure: When MMPs are increased due to exposure to UV radiation, the increased MMPs will degrade skin collagen to form skin wrinkles. Thus, in order to examine whether MMP-1 expression that increased due to UV radiation is inhibited by the extract or culture medium of the wild ginseng cambium-derived homogeneous cell line, the following test was carried out.
NHF(p6) cells were dispensed in a 12-well plate at a density of 75,000 cells/well and starved for 24 hours. Then, the cells were radiated with 40 mJ of UVB and treated with varying concentrations of each of the samples for 48 hours. Then, an experiment was carried out using a kit (Amersham, RPN 2610). As a positive control, 10 μM retinoic acid was used.

SMILES: CC1=C(/C=C/C(C)=C/C=C/C(C)=C/C(=O)O)C(C)(C)CCC1 [Retinoic acid, retinoic acid]
- MMP-1 expression, % of control (No UV = 100): 85 % of control

Reference: US20110097310A1, “ANTI-AGING OR ANTIOXIDANT COMPOSITION CONTAINING PLANT STEM CELL LINE DERIVED FROM CAMBIUM OF PANAX GINSENG” (UNHWA CORPORATION, priority 2008, published 2011)
